Source: patent US12365658B2, “Benzothia(di)azepine compounds and their use as bile acid modulators” (Albireo AB, priority 2021, dated 2025)

What was measured:
[1] = Bidirectional permeability assay (Caco-2 cells); assay type: in vitro ADME; details: human, 10 μM in FaSSIF buffer; for Papp A→B at 120 min, 10 μM: Caco-2, pH 7.4, absorptive direction (A2B); for Papp B→A at 120 min, 10 μM: Caco-2, pH 7.4, secretory direction (B2A)
Procedure: (§1) Bidirectional Permeability Assay (Caco-2 Cells)
(§2) Caco-2 cells (Evotec) were seeded at a density of 70,000 cells/well in Millicell® 24-well cell culture insert plates and maintained in an incubator (37° C., 5% CO2, 95% RH) for 21 days with media change on alternate days.
(§3) Stock solutions (10 mM) of the test compounds, atenolol (low permeability marker), propranolol (high permeability marker) and digoxin (substrate for P-gp transport pathway) were prepared in dimethylsulfoxide (DMSO). An intermediate stock solution (1 mM) was prepared by diluting 10 μL of 10 mM master stock solution with 90 μL of neat DMSO. A working stock solution (10 μM) was prepared by diluting 50 μL of 1 mM with 4950 μL of FaSSIF buffer. Post addition of compounds to the FaSSIF, samples were subjected to sonication for 2 hours, and centrifuged at 4000 RPM for 30 minutes at 37° C. The 4 mL of resultant supernatant was directly used in the assay. The final DMSO concentration in the transport experiments was 1%.
(§4) On the day of assay, Caco-2 monolayers were washed twice with transport buffer (HBSS, pH 7.4) and pre-incubated for 30 min (37° C., 5% CO2, 95% RH) in an incubator. The electrical resistance of the monolayers was measured with a Millicell®-ERS system. Monolayers with trans-epithelial electrical resistance (TEER) values greater than 350 ohm·cm^2 were selected for the assay.
(§5) The assay was conducted in absorptive direction (A2B) and secretory (B2A) directions. Transport experiments were initiated by addition of transport assay buffer (FaSSIF buffer prepared in HBSS) consisting of compounds to the donor compartment (apical chamber A-B; basolateral chamber B-A) in duplicate (n=2) wells. Drug free HBSS buffer (pH 7.4) containing 1% bovine serum albumin (BSA) was introduced to the receiver (A-B-basolateral; B-A-Apical) compartments. The volumes of apical and basolateral compartments were 0.4 and 0.8 mL, respectively. After adding dosing solution, plates were incubated in an incubator for 120 minutes at 37° C. After 120 minutes, donor and receiver samples were collected and matrix matched (1:1, 30 μL study sample+30 μL blank buffer) with the opposite buffer. Dosing samples matrix matched (1:1, 30 μL study sample+30 μL blank buffer) with the opposite buffer. Samples were processed by adding acetonitrile containing internal standard (60 μL study sample+200 μL acetonitrile containing internal standard-Tolbutamide, 500 ng/mL). Samples were vortexed and centrifuged at 4000 rpm for 10 minutes. The obtained supernatant (100 μL) was diluted with 100 μL of water and transferred to fresh 96 well plates. The concentration of compounds in the samples was analyzed by liquid chromatography tandem mass spectrometry (LC-MS/MS) method using discovery grade bio-analytical method, as applicable.
(§6) The mean apparent permeability (Papp, ×10^−6 cm/sec) of the test compounds, atenolol, propranolol and digoxin were calculated as follows:
(§7) where dq/dt=rate of transport (rate of transport of compound in the receiver compartment), C0=initial concentration in the donor compartment, A=surface area of the effective filter membrane.

[2] = Bioavailability studies; assay type: in vivo, Male mice (C57BL/6 or CD1) or Wistar rats; details: male, plasma; single intravenous dose 1 mg/kg and single oral dose 10 mg/kg; species per compound not given
Procedure: Male mice (C57BL/6 or CD1) or Wistar rats of 8-9 weeks old were used. For each test compound, two groups of 3 animals each were used. One group was administered a single intravenous dose of 1 mg/kg (vehicle 100% DMSO) through the tail vein and the other group was administered a single oral dose of 10 mg/kg through gavage needle. The group that was administered an oral dose was fasted overnight. Blood samples were collected after 0.083, 0.25, 0.5, 1, 2, 4, 6, 8 and 24 hours following intravenous administration, and after 0.25, 0.5, 1, 2, 4, 6, 8 and 24 hours following oral administration. Blood samples were taken from saphenous vein. 0.2% EDTA was used as the anticoagulant. The samples were analyzed by a discovery grade bioanalytical method developed for the estimation of test compound in plasma, using an LC-MS/MS system.

[3] = test system: Caco-2 cells; assay: Bidirectional permeability assay (Caco-2 cells); assay type: in vitro ADME; details: 10 μM in FaSSIF buffer, 120 minutes; for Permeability (Caco-2) Papp A2B: absorptive direction (A2B); for Permeability (Caco-2) Papp B2A: secretory direction (B2A)
Procedure: as §1, §2, §3, §4, §5, §6, §7

Papp A→B at 120 min, 10 μM [1] | Papp B→A at 120 min, 10 μM [1] | bioavailability [2] | Permeability (Caco-2) Papp A2B [3] | Permeability (Caco-2) Papp B2A [3] | SMILES
9.4 ×10⁻⁶ cm/s | 7.2 ×10⁻⁶ cm/s | – | – | – | CCCCC1CN(c2ccccc2)c2cc(SCC)c(OCC(C)(C)C(=O)O)cc2S(=O)(=O)N1C (stereo not shown) [Example 5, 3-((3-Butyl-7-(ethylthio)-2-methyl-1,1-dioxido-5-phenyl-2,3,4,5-tetrahydro-1,2,5-benzothiadiazepin-8-yl)oxy)-2,2-dimethylpropanoic acid]
10.8 ×10⁻⁶ cm/s | 8.6 ×10⁻⁶ cm/s | – | – | – | CCCCC1CN(c2ccc(F)cc2)c2cc(SC)c(OCC(C)(C)C(=O)O)cc2S(=O)(=O)N1C (stereo not shown) [Example 13, 3-((3-butyl-5-(4-fluorophenyl)-2-methyl-7-(methylthio)-1,1-dioxido-2,3,4,5-tetrahydro-1,2,5-benzothiadiazepin-8-yl)oxy)-2,2-dimethylpropanoic acid]
8.1 ×10⁻⁶ cm/s | 3.8 ×10⁻⁶ cm/s | – | – | – | CCCCC1CN(c2ccccc2)c2cc(SCC)c(OCC3(C(=O)O)CC3)cc2S(=O)(=O)N1C (stereo not shown) [Example 7, 1-(((3-Butyl-7-(ethylthio)-2-methyl-1,1-dioxido-5-phenyl-2,3,4,5-tetrahydro-1,2,5-benzothiadiazepin-8-yl)oxy)methyl)cyclopropane-1-carboxylic acid]
10.6 ×10⁻⁶ cm/s | 30.2 ×10⁻⁶ cm/s | – | – | – | CCCCC1CN(c2ccccc2)c2cc(SC)c(OCC(C)(OC)C(=O)O)cc2S(=O)(=O)N1C (single isomer, unassigned) [Example 23, 3-((3-Butyl-2-methyl-7-(methylthio)-1,1-dioxido-5-phenyl-2,3,4,5-tetrahydro-1,2,5-benzothiadiazepin-8-yl)oxy)-2-methoxy-2-methylpropanoic acid]
2.2 ×10⁻⁶ cm/s | 4.3 ×10⁻⁶ cm/s | – | – | – | CCCCC1CN(c2ccc(F)cc2)c2cc(SCC)c(OCC(O)C(=O)O)cc2S(=O)(=O)N1C (stereo not shown) [Example 33, 3-((3-butyl-7-(ethylthio)-5-(4-fluorophenyl)-2-methyl-1,1-dioxido-2,3,4,5-tetrahydro-1,2,5-benzothiadiazepin-8-yl)oxy)-2-hydroxypropanoic acid]
11.7 ×10⁻⁶ cm/s | 21.5 ×10⁻⁶ cm/s | – | – | – | CCCCC1CN(c2ccccc2)c2cc(SC)c(OCC(C)(OC)C(=O)O)cc2S(=O)(=O)N1C (stereo not shown) [Example 22, 3-((3-Butyl-2-methyl-7-(methylthio)-1,1-dioxido-5-phenyl-2,3,4,5-tetrahydro-1,2,5-benzothiadiazepin-8-yl)oxy)-2-methoxy-2-methylpropanoic acid]

The remaining lines, values behind:

SMILES | Papp A→B at 120 min, 10 μM [1] | Papp B→A at 120 min, 10 μM [1] | bioavailability [2] | Permeability (Caco-2) Papp A2B [3] | Permeability (Caco-2) Papp B2A [3]
CCCCC1CN(c2ccccc2)c2cc(SC)c(OCC3(C(=O)O)CC3)cc2S(=O)(=O)N1C (single isomer, unassigned) [4, enantiomer 2] | 18.8 ×10⁻⁶ cm/s | 13 ×10⁻⁶ cm/s | 17% | – | –
CCCCC1CN(c2ccccc2)c2cc(SC)c(OCC(C)(C)C(=O)O)cc2S(=O)(=O)N1C (single isomer, unassigned) [2, enantiomer 2] | 13.2 ×10⁻⁶ cm/s | 15.2 ×10⁻⁶ cm/s | 100% | – | –
CCCCC1CN(c2ccccc2)c2cc(SCC)c(OCC(C)(C)C(=O)O)cc2S(=O)(=O)N1C (single isomer, unassigned) [6, enantiomer 2] | 8.6 ×10⁻⁶ cm/s | 6.5 ×10⁻⁶ cm/s | – | – | –
CCCCC1CN(c2ccccc2)c2cc(SCC)c(OCC3(C(=O)O)CC3)cc2S(=O)(=O)N1C (single isomer, unassigned) [8, enantiomer 1] | 15.8 ×10⁻⁶ cm/s | 5 ×10⁻⁶ cm/s | 40% | – | –
CCCCC1CN(c2ccccc2)c2cc(SC)c(OCC(OC)C(=O)O)cc2S(=O)(=O)N1C (single isomer, unassigned) [32, diastereomer 1] | 5.2 ×10⁻⁶ cm/s | 15.9 ×10⁻⁶ cm/s | – | – | –
CCCCC1CN(c2ccccc2)c2cc(SC)c(OCC3(C(=O)O)CC3)cc2S(=O)(=O)N1C (stereo not shown) [Example 3, 1-(((3-Butyl-2-methyl-7-(methylthio)-1,1-dioxido-5-phenyl-2,3,4,5-tetrahydro-1,2,5-benzothiadiazepin-8-yl)oxy)methyl)cyclopropane-1-carboxylic acid] | 20.8 ×10⁻⁶ cm/s | 12.9 ×10⁻⁶ cm/s | – | – | –
CCCCC1CN(c2ccccc2)c2cc(SC)c(OCC(C)(OC)C(=O)O)cc2S(=O)(=O)N1C (single isomer, unassigned) [24, diastereomer 2] | – | – | – | 16.3 ×10⁻⁶ cm/s | 24 ×10⁻⁶ cm/s
CCCCC1CN(c2ccccc2)c2cc(SC)c(OCC(C)(OC)C(=O)O)cc2S(=O)(=O)N1C (single isomer, unassigned) [24, diastereomer 1] | – | – | – | 8.6 ×10⁻⁶ cm/s | 15.9 ×10⁻⁶ cm/s
